Where two headings read alike, the source gives them in different places.
What was measured:
[1] = Solubility; assay type: physicochemical
[2] = Environmental stability; assay type: physicochemical
[3] = system: B-cell non-Hodgkin lymphoma; assay: Single agent clinical study in B-cell non-Hodgkin lymphoma; assay type: in vivo
Description: As of Sep. […] See U.S. patent application Ser. No. 13/661,678 and International Patent Application No. PCT/US2012/062133, both filed on Oct. 26, 2012, each of which is hereby incorporated by reference in its entirety. […] Studies are ongoing and additional dose levels currently being investigated include: 1000 mg QD, 1250 mg QD, 375 mg BID and 500 mg BID.

Structure (SMILES) | solubility ([1]; ethanol, organic solvent or mixture, read-out: solubility in ethanol) [µg/mL] | solubility ([1]; water, read-out: solubility in water) [µg/mL] | environmental instabilities (heat, acid, base) [2] | evaluable B-NHL patients with decreased lymph node size ([3]; monotherapy) | patients with B-cell non-Hodgkin lymphoma who experienced stable disease ([3]; monotherapy, as of Sep. 11, 2012) | maximum tolerated dose (MTD) ([3]; single agent, up to 750 mg PO QD)
C=CC(=O)Nc1cccc(Nc2nc(Nc3ccc(OCCOC)cc3)ncc2F)c1.O=S(=O)(O)c1ccccc1 [Compound 1 besylate, N-(3-(5-fluoro-2-(4-(2-methoxyethoxyl)phenylamino)pyrimidin-4-ylamino)phenyl)acrylamide besylate] | ~10000 | ~160 | no environmental instabilities | Six of eleven | 9 out of 17 | –
C=CC(=O)Nc1cccc(Nc2nc(Nc3ccc(OCCOC)cc3)ncc2F)c1 [Compound 1, N-(3-(5-fluoro-2-(4-(2-methoxyethoxyl)phenylamino)pyrimidin-4-ylamino)phenyl)acrylamide] | – | – | – | – | – | has not yet been reached
